Patent US6887992B2, “3-cephem derivative crystal” (Otsuka Kagaku Kabushiki Kaisha, priority 1999, dated 2005)

Experiment: Stability Test: storage, factor of decomposition determined by HPLC
Type: physicochemical
Experimental: Used were 100 g of clathrate crystals comprising 3-formylcephem compound (1) and dimethylformamide prepared in Example 1 and 100 g of 3-formylcephem compound (1) prepared in Reference Example 1 (amorphous product). They were stored in a thermostatic chamber at 20 to 25° C. and in a refrigerator at 3 to 5° C. for a specified time to determine a factor of decomposition by high performance liquid chromatorgraphy (HPLC). It is clear from the table that the cephalosporin crystals of the invention scarcely causes decomposition and are excellent in stability.

[1] = stored in refrigerator at 3 to 5° C. for 48 days
[2] = stored in thermostatic chamber at 20 to 25° C. for 14 days

Compound	Decomposition rate (%) [1]	Decomposition rate (%) [2]
COc1ccc(COC(=O)C2=C(C=O)CSC3C(NC(=O)Cc4ccccc4)C(=O)N23)cc1 (stereo not shown) [amorphous product, p-methoxybenzyl ester of 7-phenylacetamide-3-formyl-3-cephem-4-carboxylic acid]	13%	59%
COc1ccc(COC(=O)C2=C(C=O)CSC3C(NC(=O)Cc4ccccc4)C(=O)N23)cc1 (stereo not shown) [crystal, p-methoxybenzyl ester of 7-phenylacetamide-3-formyl-3-cephem-4-carboxylic acid]	0%	2%
